The target in the assay is T1, TLR7 (Homo sapiens, UniProt Q9NYK1).
T1 sequence (Q9NYK1 27-1049): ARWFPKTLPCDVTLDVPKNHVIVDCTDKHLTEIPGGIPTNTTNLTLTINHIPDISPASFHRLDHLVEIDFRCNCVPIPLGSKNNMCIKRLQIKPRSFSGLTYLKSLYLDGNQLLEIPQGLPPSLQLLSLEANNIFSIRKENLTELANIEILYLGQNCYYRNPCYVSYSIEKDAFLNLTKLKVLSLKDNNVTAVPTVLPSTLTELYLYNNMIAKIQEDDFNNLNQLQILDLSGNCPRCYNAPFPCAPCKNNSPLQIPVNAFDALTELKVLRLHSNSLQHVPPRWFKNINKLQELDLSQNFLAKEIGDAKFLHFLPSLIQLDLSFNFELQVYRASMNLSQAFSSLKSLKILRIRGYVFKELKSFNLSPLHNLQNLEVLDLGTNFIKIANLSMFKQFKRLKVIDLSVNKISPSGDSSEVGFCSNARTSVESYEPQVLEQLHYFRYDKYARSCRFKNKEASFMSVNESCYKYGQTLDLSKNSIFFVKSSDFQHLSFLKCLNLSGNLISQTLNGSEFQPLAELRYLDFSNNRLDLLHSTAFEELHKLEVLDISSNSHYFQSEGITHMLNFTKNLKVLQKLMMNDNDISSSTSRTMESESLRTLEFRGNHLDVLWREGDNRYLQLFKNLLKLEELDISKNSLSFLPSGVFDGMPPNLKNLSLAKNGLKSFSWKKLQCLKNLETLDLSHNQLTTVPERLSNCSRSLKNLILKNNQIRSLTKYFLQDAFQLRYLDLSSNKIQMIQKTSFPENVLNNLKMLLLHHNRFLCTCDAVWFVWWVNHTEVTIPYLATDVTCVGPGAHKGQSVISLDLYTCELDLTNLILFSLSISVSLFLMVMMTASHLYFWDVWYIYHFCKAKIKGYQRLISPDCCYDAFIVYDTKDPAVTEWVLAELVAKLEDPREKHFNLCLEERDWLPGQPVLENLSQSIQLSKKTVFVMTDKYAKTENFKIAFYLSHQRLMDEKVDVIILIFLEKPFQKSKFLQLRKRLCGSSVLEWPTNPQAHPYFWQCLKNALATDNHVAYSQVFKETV
Briefly: IFN-α1-luciferase reporter assay in genetically modified Namalwa cells, TLR7. The assay is classed as cell-based. Set-up: expressed in transfected cells; host or cells: Namalwa (ATCC CRL-1432). The following applies: 10 μM IRM, 18 hours. As for the experimental part:
Results are shown in Table 6 and are expressed as fold induction of IFN-α1 —induced luciferase signal, again with respect to a vehicle control.
The assay identified TLR6-selective compounds (i.e., compounds that modulate TLR6-mediated activity, but not TLR7-mediated activity), TLR7-selective compounds (compounds that modulate TLR7-mediated activity, but not TLR6-mediated activity), and compounds that modulate cellular activity through both TLR6 and TLR7.
Unless otherwise indicated, all incubations were performed at 37° C. with 5% CO2 at 98% humidity.
Culture medium was prepared from complete RPMI 1640 medium (BioSource International, Inc., Camarillo, Calif.). Fetal bovine serum (Atlas Biologicals, Inc., Ft. Collins, Colo.) was added to a final concentration of 7.5% (vol/vol); L-glutamine (BioSource International, Inc.) was added to 5 mM; and sodium pyruvate (BioSource International, Inc.) was added to 1 mM.
Namalwa cells were grown by incubation in culture medium overnight. Cells were harvested by centrifugation in a tabletop centrifuge (1200 RPM for 5 minutes), and then resuspended in phosphate buffered sucrose to a concentration of 1.3×10^7 cells/mL. […]
The electroporated cells were suspended in 10 mLs of culture medium and incubated overnight. Dead cells and debris were removed after 24 hours using a MACS Dead Cell Removal kit (Miltenyi Biotec, Auburn, Calif.). Cells were resuspended in 10 mL of culture medium and incubated for an additional 24 hours.
Transfected cells were selected by adding G418 (Promega Corp., Madison, Wis.) to a final concentration of 1 mg/mL and incubating the cells for seven days.
The selected transfected cells were counted and resuspended to a concentration of 1×10^6 cell per mL in culture medium. 100 μl aliquots of cells were placed in the wells of a white-walled, white-bottomed 96-well plate (Corning, Inc., Corning, N.Y.). 1.0 μL of an IRM compound from Table 1 (prepared at 1 mM in 100% DMSO) was added to some cell aliquots so that the final concentration of IRM compound was 10 μM. As a positive control, some cell aliquots were incubated with Sendai virus instead of IRM compound. As a negative control, some cell aliquots were incubated with DMSO without IRM compound. In all cases, the cells were incubated for 18 hours.
The plates were equilibrated to room temperature before one volume of reconstituted LucLight Plus (Packard Instruments, Meriden, Conn.) was added to each aliquot of cells. Each well of the plate was read on an LJL Analyst (LJL Biosystems, Inc., Sunnyvale, Calif.) set with a 5 minute dark adapt. Results are shown in Table 6 and are expressed as fold increase of the IFN-αl—induced luciferase signal compared to a DMSO control.
Regarding `COCCc1nc2c(N)nc3ccccc3c2n1CCOCCNC(=O)Nc1ccccc1` [IRM19, N-(2-{2-[4-amino-2-(2-methoxyethyl)-1H-imidazo[4,5-c]quinolin-1-yl)ethoxy}ethyl)-N′-phenylurea], the “TLR7: fold increase of the IFN-α1-induced luciferase signal compared to a DMSO control” value (“TLR7: fold increase” below) is given as 2.63 fold increase.
With `CCc1nc2c(N)nc3ccccc3c2n1CCCCSc1cc(Cl)cc(Cl)c1` [IRM14, 1-{4-[(3,5-dichlorophenyl)thio]butyl}-2-ethyl-1H-imidazo[4,5-c]quinolin-4-amine], the “TLR7: fold increase” value was 1.40 fold increase.
Consider `CCc1nc2c(N)nc3ccccc3c2n1CCCCNC(=O)C1CCCCC1` [IRM8, N-[4-(4-amino-2-ethyl-1H-imidazo[4,5-c]quinolin-1-yl)butyl]cyclohexanecarboxamide], for which the “TLR7: fold increase” value is reported as 2.89 fold increase.
Turning to `COCCc1nc2c(N)nc3c(c2n1CC(C)(C)NS(C)(=O)=O)CCCC3` [IRM22, N-{2-[4-amino-2-(2-methoxyethyl)-6,7,8,9-tetrahydro-1H-imidazo[4,5-c]quinolin-1-yl]-1,1-dimethylethyl}methanesulfonamide], the “TLR7: fold increase” value is 3.59 fold increase.
Regarding `COCCc1nc2c(N)nc3ccccc3c2n1CCOCCN(C)C(=O)C1CCCCC1` [IRM3, N-(2-{2-[4-amino-2-(2-methoxyethyl)-1H-imidazo[4,5-c]quinolin-1-yl]ethoxy}ethyl)-N-methylcyclohexanecarboxamide], the “TLR7: fold increase” value turned out to be 2.86 fold increase.
Turning to `CCOCc1nc2c(N)nc3ccccc3c2n1CC(C)C` [IRM1, 2-(ethoxymethyl)-1-(2-methylpropyl)-1H-imidazo[4,5-c]quinolin-4-amine], the “TLR7: fold increase” value was 2.43 fold increase.
Turning to `CCCCc1nc2c(N)nc3ccccc3c2n1CCCCCS(C)(=O)=O` [IRM6, 2-butyl-1-[5-(methylsulfonyl)pentyl]-1H-imidazo[4,5-c]quinolin-4-amine], the “TLR7: fold increase” value worked out at 3.09 fold increase.
For `CCC(C)NC(=S)NCCn1c(CCOC)nc2c(N)nc3ccccc3c21` (stereo not drawn) [IRM21, N-{2-[4-amino-2-(2-methoxyethyl)-1H-imidazo[4,5-c]quinolin-1-yl]ethyl}-N′-sec-butylthiourea], the “TLR7: fold increase” value is 3.48 fold increase.
For `CCOCc1nc2c(N)nc3c(c2n1CC(C)(C)O)CCCC3` [IRM16, 4-amino-2-ethoxymethyl-α,α-dimethyl-6,7,8,9-tetrahydro-1H-imidazo[4,5-c]quinoline-1-ethanol] the value was 2.96 fold increase.

Source of the values: patent US20040171086A1, “Selective modulation of TLR-mediated biological activity” (3M Innovative Properties Company, priority 2003, published 2004).
